In patent US9084792B2 (Zhejiang Charioteer Pharmaceutical Co., Ltd., priority 2009, dated 2015):

Columns and labels:
[1] = thermal decomposition point; format: physicochemical
Description: (1) It has the property required for large-scale preparation of drugs: for example, it has thermal decomposition point of over 250° C., and good fluidity and bulk density, which are in favor of drug preparation and industrial production on a large scale.

[2] = stability test of crystalline form on storage; format: physicochemical; conditions: room temperature, relative humidity of less than 50%
From the text: (2) It has good stability of crystalline form. […] It can be stored in the dark, cool and dry place for a long time.

thermal decomposition point [1]: over 250 °C
storage time [2]: more than one year
content during the storage time ([2]; more than one year): the content does not reduce
crystalline form during the storage time ([2]; more than one year): the crystalline form remains the same
SMILES: Nc1nc2c(ncn2COCCO)c(=O)[nH]1.Nc1nc2c(ncn2COCCO)c(=O)[nH]1.Nc1nc2c(ncn2COCCO)c(=O)[nH]1.O.O [acyclovir 2/3 hydrate]
